Here are results for 1 compound from patent US8962600B2, “Neuroprotective compounds and their use” (The Medical College of Wisconsin, Inc., priority 2009, dated 2015).

The test system of one assay is GFAP. The experiment in a line: GFAP expression in substantia nigra (astroglial activation), immunostaining. As to conditions: diapocynin 300 mg/kg gavage, 1 day pre-treatment + 4 days co-treatment with MPTP 25 mg/kg i.p. It counts as in vivo, C57BL/6 mice. The protocol: For checking inflammatory and oxidative stress markers, mice were gavaged diapocynin (300 mg/kg dose) 1 day before MPTP treatment (pre-treatment) and continued for another 4 days of co-treatment with MPTP. In the sub-acute MPTP regimen, MPTP (25 mg/kg) was injected intraperitoneally once per day from day 2 to day 7. Control mice received saline at the same dosage.
Four days after MPTP treatment, mice were perfused with 4% paraformaldehyde (PFA) and post-fixed with PFA and 30% sucrose, respectively. Next, fixed brains were cut into 30 μm sections and kept in 30% sucrose-ethylene glycol solutions at −20° C. On the day of staining, sections were rinsed with phosphate-buffered saline (PBS) and incubated with different primary antibodies, including anti-IBA-1 (DAKO, Carpinteria, Calif.), anti-GFAP (Millipore, Billerica, Mass.), anti-iNOS (Santa Cruz Biotechnology, Santa Cruz, Calif.), anti-3NT (Millipore), anti-4HNE (R&D Systems, Minneapolis, Minn.) and anti-gp91phox (Santa Cruz Biotechnology) for overnight at 4° C. Appropriate secondary antibodies (Alexa Fluor 488, 594, or 555 from Invitrogen, Carlsbad, Calif.) were used followed by incubation with 10 μg/ml Hoechst 33342 for 5 min at room temperature to stain the nucleus. Sections were viewed under a Nikon inverted fluorescence microscope (model TE-2000U; Nikon, Tokyo, Japan). […]

The next assay has as its system TNF-α. In words: LPS-induced TNF-α release in primary microglia, LUMINEX immunoassay. It counts as cell-based, mouse. Conditions: diapocynin 10 μM, LPS 24 hr. The protocol:
Primary microglia were obtained from 1-2 day old C57/b16 mouse pups. Upon collection, whole brains were kept in ice-cold DMEM-F12 medium containing 10% FBS, 1× sodium pyruvate, 1× NEAAs, 100 units pen/strep, and Q. After collection, the brains were placed in 0.25% trypsin-EDTA and incubated at 37° C., with gentle shaking every 5-10 min. After 30 min, the trypsin was removed, and the brains are washed in warmed medium twice. After washing, medium was added to the brains, and the brains were homogenized using gentle pipetting, starting with a 25 ml pipette and moving to smaller pipette tips as the brains were broken up. When the brains were sufficiently homogenized to a single-cell suspension, they were filtered with a 70 μm nylon filter, which allowed microglia and astrocytes to be collected. The resultant cell suspension was plated in T-75 flasks and allowed to grow for 12-14 days at 37° C., 5% CO2. […]
Cytokine levels of BV2 and microglial cells treated with diapocynin were determined by LUMINEX® multiplex immunoassay. […]
Cytokine standards and controls were adjusted to 40 μl volume and the LUMINEX® Samples were run on a LUMINEX® 200 Total System and analyzed with Multiplex Analysis—LUMINEX® Software (Invitrogen, Carlsbad, Calif.).

A further assay concerns NOS2. The experiment in a line: LPS-induced NOS2 protein expression in BV2 cells, Western blot. It counts as cell-based, mouse. Conditions: diapocynin 10 μM 30 min pretreatment, LPS 1 μg/ml 24 hr, back to basal level or below. The protocol: Two cell models of neuroinflammation were used to evaluate the anti-neuroinflammatory property of diapocynin including the mouse BV2 microglial cell line, as well as primary microglia isolated from mouse brains. BV2 cells were obtained from the American Tissue Culture Collection. BV2 cells were maintained in RPMI containing 10% FBS and 100 units of pen/strep at 37° C. and 5% CO2. For treatments, RPMI containing 2% FBS and 100 units of pen/strep was used.
BV2 cell lysates containing equal amounts of protein were loaded in each lane and separated on a 10% SDS-PAGE gel. After separation, the protein was transferred to a nitrocellulose membrane. Non-specific binding sites were blocked with Li-cor blocking buffer for 45 min. The membranes were then treated with primary antibodies directed against NOS2 (mouse monoclonal 1:200) and p67phox (rabbit polyclonal 1:200). To confirm equal amounts of protein were loaded, membranes were also probed for β-actin with a β-actin antibody (dilution of 1:10,000). Secondary antibodies, donkey anti-mouse (Invitrogen) and conjugated anti-rabbit IgG (Rockland), were used at a dilution of 1:10,000 for 1 hr at room temperature. The membranes were imaged and captured using a Li-COR Odyssey infrared imaging system and software.

`COc1cc(C(C)=O)cc(-c2cc(C(C)=O)cc(OC)c2O)c1O` [diapocynin]: in the assay with GFAP, the “GFAP protein expression in substantia nigra” value is “inhibition”. In addition, the “blocking LPS-induced release of TNF-α” value in the assay on TNF-α is “very effective”. Also, in the assay on NOS2, the “reducing LPS-induced NOS2 protein expression” value is “extremely effective”.
